Columns and labels:
Assay in all cases: greenhouse pre-emergence herbicidal test
Type in all cases: in vivo
Echinochloa crus-galli = conditions: scale 0 to 100
Description: (§1) The culture containers used were plastic flowerpots containing loamy sand with approximately 3.0% of humus as the substrate. The seeds of the test plants were sown separately for each species.
(§2) For the pre-emergence treatment, the active ingredients, which had been suspended or emulsified in water, were applied directly after sowing by means of finely distributing nozzles. The containers were irrigated gently to promote germination and growth and subsequently covered with transparent plastic hoods until the plants had rooted. This cover caused uniform germination of the test plants, unless this had been impaired by the active ingredients. For the post-emergence treatment, the test plants were first grown to a height of 3 to 15 cm, depending on the plant habit, and only then treated with the active ingredients which had been suspended or emulsified in water. For this purpose, the test plants were either sown directly and grown in the same containers, or they were first grown separately as seedlings and transplanted into the test containers a few days prior to treatment.
(§3) Depending on the species, the plants were kept at 10-25° C. or 20-35° C., respectively.
(§4) The test period extended over 2 to 4 weeks. During this time, the plants were tended, and their response to the individual treatments was evaluated.
(§5) Evaluation was carried out using a scale from 0 to 100. 100 means no emergence of the plants, or complete destruction of at least the aerial moieties, and 0 means no damage, or normal course of growth. A moderate herbicidal activity is given at values of at least 60, a good herbicidal activity is given at values of at least 70, and a very good herbicidal activity is given at values of at least 85.
(§6) The plants used in the greenhouse experiments were of the following species: […]

Alopecurus myosuroides = conditions: scale 0 to 100
Description: as §1, §2, §3, §4, §5, §6

Setaria faberi = conditions: scale 0 to 100
Description: as §1, §2, §3, §4, §5, §6

Abutilon theophrasti = conditions: scale 0 to 100
Description: as §1, §2, §3, §4, §5, §6

Digitaria sanguinalis = conditions: scale 0 to 100
Description: as §1, §2, §3, §4, §5, §6

Amaranthus retroflexus = conditions: scale 0 to 100
Description: as §1, §2, §3, §4, §5, §6

Apera spica-venti = conditions: 31 g/ha, scale 0 to 100
Description: as §1, §2, §3, §4, §5, §6

Which results are given for `COc1c(Cl)cc(F)c(F)c1Nc1nc(N)nc(C(F)CC(C)C)n1` (racemic) [Example 12]?
herbicidal activity (Echinochloa crus-galli; pre-emergence, 250 g/ha): 100%; herbicidal activity (Alopecurus myosuroides; pre-emergence, 250 g/ha): 100%; herbicidal activity (Setaria faberi; pre-emergence, 250 g/ha): 100%

With `COc1c(Cl)ccc(F)c1Nc1nc(N)nc(C(C)(C)F)n1` [Example 2] as the compound, how does the herbicidal activity (Abutilon theophrasti; pre-emergence, 62,5 g/ha) read?
Its herbicidal activity is 100%.

And the herbicidal activity (Echinochloa crus-galli; pre-emergence, 62,5 g/ha)?
The herbicidal activity was 100%.

What about the herbicidal activity (Digitaria sanguinalis; pre-emergence, 62,5 g/ha) of the same compound?
Its herbicidal activity is 100%.

What does the source list for `COc1c(Cl)cc(C)c(F)c1Nc1nc(N)nc(C(C)(C)F)n1` [Example 3]?
herbicidal activity (Abutilon theophrasti; pre-emergence, 62,5 g/ha): 100%; herbicidal activity (Echinochloa crus-galli; pre-emergence, 62,5 g/ha): 100%; herbicidal activity (Digitaria sanguinalis; pre-emergence, 62,5 g/ha): 100%

Which results are given for `COc1c(Br)ccc(F)c1Nc1nc(N)nc(C(C)(C)F)n1` [Example 4, N4-(3-bromo-6-fluoro-2-methoxy-phenyl)-6-(1-fluoro-1-methyl-ethyl)-1,3,5-triazine-2,4-diamine]?
herbicidal activity (Abutilon theophrasti; pre-emergence, 62,5 g/ha): 100%; herbicidal activity (Echinochloa crus-galli; pre-emergence, 62,5 g/ha): 100%; herbicidal activity (Digitaria sanguinalis; pre-emergence, 62,5 g/ha): 100%

Which herbicidal activity (Abutilon theophrasti; pre-emergence, 250 g/ha) does the source give for `COc1c(Br)ccc(F)c1Nc1nc(N)nc(C2(F)CCCCC2)n1` [Example 5] here?
The herbicidal activity was 90%.

And the herbicidal activity (Echinochloa crus-galli; pre-emergence, 250 g/ha)?
Its herbicidal activity is 85%.

What about the herbicidal activity (Digitaria sanguinalis; pre-emergence, 250 g/ha) of the same compound?
The herbicidal activity was 100%.

`COc1c(Cl)cc(F)c(F)c1Nc1nc(N)nc(C2(F)CCCC2)n1` [Example 11] was tested. Which herbicidal activity (Echinochloa crus-galli; pre-emergence, 250 g/ha) did it give?
The herbicidal activity was 100%.

What about the herbicidal activity (Alopecurus myosuroides; pre-emergence, 250 g/ha) of the same compound?
Its herbicidal activity is 100%.

And the herbicidal activity (Setaria faberi; pre-emergence, 250 g/ha)?
Its herbicidal activity is 100%.

Which results are given for `CC(C)(F)c1nc(N)nc(Nc2c(F)ccc(Br)c2OC2CC2)n1` [Example 13]?
herbicidal activity (Echinochloa crus-galli; pre-emergence, 62,5 g/ha): 100%; herbicidal activity (Alopecurus myosuroides; pre-emergence, 62,5 g/ha): 100%; herbicidal activity (Setaria faberi; pre-emergence, 62,5 g/ha): 100%

`Nc1nc(Nc2c(F)ccc(Br)c2OC2CC2)nc(C2(F)CCCC2)n1` [Example 14] was tested. Which herbicidal activity (Echinochloa crus-galli; pre-emergence, 125 g/ha) did it give?
Its herbicidal activity is 98%.

What about the herbicidal activity (Alopecurus myosuroides; pre-emergence, 125 g/ha) of the same compound?
The herbicidal activity was 98%.

And the herbicidal activity (Setaria faberi; pre-emergence, 125 g/ha)?
The herbicidal activity was 100%.

With `CC#CCOc1c(Br)cc(F)c(F)c1Nc1nc(N)nc(C(C)(C)F)n1` [Example 15] as the compound, how does the herbicidal activity (Echinochloa crus-galli; pre-emergence, 125 g/ha) read?
The herbicidal activity was 100%.

What about the herbicidal activity (Alopecurus myosuroides; pre-emergence, 125 g/ha) of the same compound?
The herbicidal activity was 100%.

What about the herbicidal activity (Setaria faberi; pre-emergence, 125 g/ha) of the same compound?
Its herbicidal activity is 100%.

`CC(C)(F)c1nc(N)nc(Nc2c(F)c(F)cc(Cl)c2OCC#CC2CC2)n1` [Example 30] was tested. Which herbicidal activity (Abutilon theophrasti; pre-emergence, 31 g/ha) did it give?
Its herbicidal activity is 100%.

What about the herbicidal activity (Alopecurus myosuroides; pre-emergence, 31 g/ha) of the same compound?
The herbicidal activity was 100%.

What about the herbicidal activity (Setaria faberi; pre-emergence, 31 g/ha) of the same compound?
The herbicidal activity was 100%.

Which results are given for `COc1c(Br)cc(F)c(F)c1Nc1nc(N)nc(C(C)(F)CCl)n1` (stereo not drawn) [Example 33]?
herbicidal activity (Abutilon theophrasti; pre-emergence, 62,5 g/ha): 100%; herbicidal activity (Amaranthus retroflexus; pre-emergence, 62,5 g/ha): 100%; herbicidal activity (Echinochloa crus-galli; pre-emergence, 62,5 g/ha): 98%

Which herbicidal activity (Abutilon theophrasti; pre-emergence, 62,5 g/ha) does the source give for `COc1c(Cl)cc(F)c(F)c1Nc1nc(N)nc(C(C)(F)CCl)n1` (stereo not drawn) [Example 34] here?
Its herbicidal activity is 100%.

What about the herbicidal activity (Amaranthus retroflexus; pre-emergence, 62,5 g/ha) of the same compound?
Its herbicidal activity is 100%.

And the herbicidal activity (Echinochloa crus-galli; pre-emergence, 62,5 g/ha)?
The herbicidal activity was 100%.

For `COc1c(Cl)cc(F)c(F)c1Nc1nc(N)nc(C2(F)CC2)n1` [Example 35], which herbicidal activity (Abutilon theophrasti; pre-emergence, 62,5 g/ha) is on record?
Its herbicidal activity is 100%.

What about the herbicidal activity (Amaranthus retroflexus; pre-emergence, 62,5 g/ha) of the same compound?
Its herbicidal activity is 100%.

What about the herbicidal activity (Echinochloa crus-galli; pre-emergence, 62,5 g/ha) of the same compound?
The herbicidal activity was 100%.

Which results are given for `COc1c(Cl)cc(F)c(F)c1Nc1nc(N)nc(C(C)(C)OC)n1` [Example 36]?
herbicidal activity (Abutilon theophrasti; pre-emergence, 62,5 g/ha): 100%; herbicidal activity (Amaranthus retroflexus; pre-emergence, 62,5 g/ha): 100%; herbicidal activity (Echinochloa crus-galli; pre-emergence, 62,5 g/ha): 100%

What does the source list for `COc1c(Cl)cc(F)c(F)c1Nc1nc(N)nc(C(C)(C)Cl)n1` [Example 37]?
herbicidal activity (Abutilon theophrasti; pre-emergence, 62,5 g/ha): 98%; herbicidal activity (Amaranthus retroflexus; pre-emergence, 62,5 g/ha): 100%; herbicidal activity (Echinochloa crus-galli; pre-emergence, 62,5 g/ha): 100%

How did the herbicidal activity (Abutilon theophrasti; pre-emergence, 62,5 g/ha) turn out when `COc1c(Cl)cc(F)c(F)c1Nc1nc(N)nc(C(C)(F)F)n1` [Example 49, N4-(5-chloro-2,3-difluoro-6-methoxy-phenyl)-6-(1,1-difluoroethyl)-1,3,5-triazine-2,4-diamine] was run?
Its herbicidal activity is 100%.

And the herbicidal activity (Amaranthus retroflexus; pre-emergence, 62,5 g/ha)?
Its herbicidal activity is 100%.

What about the herbicidal activity (Echinochloa crus-galli; pre-emergence, 62,5 g/ha) of the same compound?
Its herbicidal activity is 100%.

Which results are given for `CC=C(Cl)COc1c(Cl)cc(F)c(F)c1Nc1nc(N)nc(C(C)(C)F)n1` [Example 53]?
herbicidal activity (Echinochloa crus-galli; pre-emergence, 62,5 g/ha): 98%; herbicidal activity (Alopecurus myosuroides; pre-emergence, 62,5 g/ha): 90%; herbicidal activity (Setaria faberi; pre-emergence, 62,5 g/ha): 100%

Which results are given for `COc1c(Br)cc(F)c(F)c1Nc1nc(N)nc(C2(F)CC2)n1` [Example 55]?
herbicidal activity (Abutilon theophrasti; pre-emergence, 62,5 g/ha): 100%; herbicidal activity (Amaranthus retroflexus; pre-emergence, 62,5 g/ha): 100%; herbicidal activity (Echinochloa crus-galli; pre-emergence, 62,5 g/ha): 100%

With `COc1c(Cl)cc(Cl)c(F)c1Nc1nc(N)nc(C2(F)CCCC2)n1` [Example 60] as the compound, how does the herbicidal activity (Amaranthus retroflexus; pre-emergence, 31 g/ha) read?
The herbicidal activity was 100%.

What about the herbicidal activity (Apera spica-venti) of the same compound?
The herbicidal activity was 95%.

What about the herbicidal activity (Setaria faberi; pre-emergence, 31 g/ha) of the same compound?
Its herbicidal activity is 98%.

For `CC#CCOc1c(Cl)cc(Cl)c(F)c1Nc1nc(N)nc(C(C)(C)F)n1` [Example 61], which herbicidal activity (Abutilon theophrasti; pre-emergence, 31 g/ha) is on record?
The herbicidal activity was 100%.

What about the herbicidal activity (Amaranthus retroflexus; pre-emergence, 31 g/ha) of the same compound?
Its herbicidal activity is 100%.

And the herbicidal activity (Echinochloa crus-galli; pre-emergence, 31 g/ha)?
Its herbicidal activity is 100%.

From patent US20240101521A1, “DIAMINOTRIAZINE COMPOUNDS” (BASF SE, priority 2021, published 2024)
